Laboratory results published in ChEMBL document CHEMBL5375943, “The Importance of Tracking "Missing" Metabolites: How and Why?” (J Med Chem, 2023).

Legend:
Cytochrome P450 3A4 = Cytochrome P450 3A4 (Homo sapiens, UniProt P08684); test: Inhibition of CYP3A4 in human liver microsome; format: ADME, microsomes
[1] = Clearance in Wistar rat at 3 mg/kg, iv incubated for 24 hrs by LC-MS/MS analysis; format: ADME, organism-based; details: in vivo
[2] = Oral bioavailability in ICR mouse plasma at 5 mg/kg by LC-MS/MS analysis; format: ADME, organism-based
[3] = AUC (0 to t) in Sprague-Dawley rat at 10 mg/kg, po; format: ADME, organism-based; parameters: dose 10 mg/kg, route po; details: in vivo
[4] = Elimination half life in human liver microsomes; format: ADME, Microsome; details: read-out: beta t1/2 (converted)
[5] = Stability in human plasma assessed as compound remaining incubated for 10 mins relative to control; format: ADME, cell-free; details: read-out: Stability
[6] = Elimination half life in human; format: ADME; details: read-out: beta t1/2
[7] = Metabolic stability in human plasma assessed as half life

Sequence of Cytochrome P450 3A4 (P08684 whole entry): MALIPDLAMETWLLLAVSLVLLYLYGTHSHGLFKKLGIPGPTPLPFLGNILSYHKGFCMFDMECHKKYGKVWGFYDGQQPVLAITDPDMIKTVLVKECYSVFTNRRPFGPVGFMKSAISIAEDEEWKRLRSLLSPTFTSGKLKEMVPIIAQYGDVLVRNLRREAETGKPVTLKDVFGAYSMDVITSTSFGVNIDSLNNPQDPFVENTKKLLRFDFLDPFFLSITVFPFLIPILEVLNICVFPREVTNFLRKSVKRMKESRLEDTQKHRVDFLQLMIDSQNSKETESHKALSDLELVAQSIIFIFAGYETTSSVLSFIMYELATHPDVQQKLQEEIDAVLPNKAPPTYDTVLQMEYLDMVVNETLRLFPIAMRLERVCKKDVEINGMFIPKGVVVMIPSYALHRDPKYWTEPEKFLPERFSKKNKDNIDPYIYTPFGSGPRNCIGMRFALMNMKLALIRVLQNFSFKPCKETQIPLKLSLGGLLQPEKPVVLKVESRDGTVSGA

For `C[C@H](c1nc2ncccc2c(=O)n1-c1ccc(O)cc1)N(Cc1cccnc1)C(=O)Cc1ccc(OC(F)(F)F)cc1`, which IC50 (Cytochrome P450 3A4) is on record?
The IC50 was 550 nM.

Which clearance [1] does the source give for `C[C@H](O)[C@H]1CC[C@H]2[C@@H]3CC[C@H]4CC(C(=O)O)=CC[C@]4(C)[C@H]3CC[C@]12C` here?
The clearance was 0.4 mL/min/kg.

Which results are given for `CCc1cc(/C(C)=N/OCc2ccc(C3CCCCC3)c(C(F)(F)F)c2)ccc1CN1CC(C(=O)O[C@H]2CC[C@@]3(C)C(=CC[C@H]4[C@@H]5CC[C@H]([C@H](C)CCCC(C)C)[C@@]5(C)CC[C@@H]43)C2)C1`?
bioavailability [2]: 14.7%; AUC(0-t) [3]: 0.19 µM·h; half-life [4]: 155 h

Which remaining at 10 min [5] does the source give for `NCCOP(=O)(O)OC[C@@H](O)CNC(=O)c1ccncc1Nc1ccc(I)cc1F` here?
The remaining at 10 min was 30%.

Which bioavailability [2] does the source give for `C[C@H](OS(=O)(=O)O)[C@H]1CC[C@H]2[C@@H]3CC[C@H]4CC(C(=O)O)=CC[C@]4(C)[C@H]3CC[C@]12C` here?
Its bioavailability is 20.4%.

What about the half-life [4] of the same compound?
The half-life was 171 h.

Which IC50 (Cytochrome P450 3A4) does the source give for `OC1CC(O)(CN2CCC(COc3noc4cccc(O[C@H]5CCOC5)c34)CC2)CCO1` (stereo partly specified) here?
Its IC50 is 600 nM.

With `COc1ccc(Cl)cc1[C@]1(F)C(=O)Nc2cc(C(F)(F)F)ccc21` [FLINDOKALNER] as the compound, how does the half-life [6] read?
Its half-life is > 168 h.

With `COc1ccc2[nH]c([S+]([O-])Cc3ncc(C)c(OC)c3C)nc2c1` (stereo unspecified) [OMEPRAZOLE] as the compound, how does the half-life [7] read?
Its half-life is 1 h.
